Results reported in patent US20190060340A1, “NOVEL AMINOGLYCOSIDES AND USES THEREOF IN THE TREATMENT OF GENETIC DISORDERS” (Technion Research & Development Foundation Limited, priority 2007, published 2019).
≈ marks a conversion by molar mass, not a printed value. Read-outs that look alike come from different tables or passages of the source.

Tests used:
[1] = available toxicity data on aminoglycosides; unit inferred; cited from earlier work
stop mutations = details: literature; cited from earlier work
[2] = tested on: Bacillus Subtilis ATCC 6633; experiment: Antibacterial activity, MIC by double-microdilution method; assay type: cell-based; details: Bacillus subtilis
Procedure: (§1) In order to compare the observed aminoglycoside-induced stop codon read-through activity in mammalian cells to antibacterial activity thereof, Compounds 1-9 were further investigated as antibacterial agents against both Gram-negative (E. coli) and Gram-positive (Bacillus subtilis) bacteria, and the minimal inhibitory concentration (MIC) values were determined by using a microdilution assay with paromomycin and gentamicin as controls, and the results are presented in Table 18 hereinabove.
(§2) The bacterial strains used were Escherichia coli ATCC 25922, and Bacillus Subtilis ATCC 6633. […] All the experiments were performed in triplicates and analogous results were obtained in two to four different experiments.

[3] = tested on: Escherichia coli ATCC 25922; experiment: as above; assay type: cell-based; details: for MIC: Escherichia coli
Procedure: as §1, §2

[4] = tested on: R3X nonsense mutation (a premature UGA C stop codon) of the PCDH15 gene; experiment: In vitro suppression and translation, pDB650-R3X reporter plasmid in rabbit reticulocyte lysate coupled transcription/translation system; assay type: biochemical, human; details: for Conc. (concentration at which maximal suppression level was observed) / Supp. level (%), maximal in-vitro mutation suppression: R3X mutation; for Conc. (concentration at which maximal suppression level was observed): in vitro; for Supp. level (%), maximal in-vitro mutation suppression: 35-kDa product out of total protein; for Supp. level (%), maximal in-vitro mutation suppression / Trans. level (%): at Conc. of maximal suppression; for Trans. level (%): total protein relative to no compound
Procedure: Initially, Compounds 1-9 were tested for their ability to suppress this nonsense mutation in vitro, using a reporter construct carrying the R3X nonsense mutation (a premature UGA C stop codon) of the PCDH15 gene. Mutations in the PCDH15 gene which encodes protocardherin 15, cause type 1 Usher syndrome (USH1), which is characterized by profound prelingual hearing loss, vestibular areflexia, and prepubertal onset of retinitis pigmentosa (RP). Four different PCDH15 USH1-causing nonsense mutations, R3X, R245X, R643X, and R929X, have been reported in humans.
Suppression of nonsense mutations by Compounds 1-9 was tested in vitro using a reporter plasmid harboring the R3X mutation of the PCDH15 gene. To create this plasmid, the oligonucleotides 5′-[…]-3′ (SEQ ID NO: 1) and 5′-[…]-3′ (SEQ ID NO: 2) were annealed to each other and inserted into the BamHI and HindIII sites of plasmid pDB650 [6].
The resulting reporter plasmid pDB650-R3X contained a TGA C nonsense mutation between a 25-kDa polypeptide encoding open reading frame (ORF) and a 10-kDa polypeptide encoding ORF.
The plasmid was transcribed and translated in a rabbit reticulocyte lysate coupled transcription/translation system (Promega) in the presence of [^35S]-methionine, and the reaction products were separated by SDS-PAGE and quantified using Phosphorlmager analysis. The mutation suppression level was calculated as the relative proportion of the 35-kDa product out of total protein (the sum of 35-kDa and 25-kDa), and the translation level was calculated as the relative proportion of the total protein at each tested compound concentration out of the total protein without the presence of the tested compounds.
The tested concentrations of paromomycin were 0, 5, 10, 20, 30 and 40 μg/ml, tested concentrations of gentamicin were 0, 5, 10, 20, and 30 μg/ml, and the tested concentrations of Compounds 1-9 were in the range of 0-160 μg/ml.
Compound 37 was tested for its ability to suppress a nonsense mutation in-vitro, using a reporter construct carrying either R3X nonsense mutation (a premature UGA C stop codon) or R245X nonsense mutation (a premature UGA A stop codon) of the PCDH15 gene, using gentamicin, paromomycin and Compound 3 as standards and following the experimental procedures presented hereinabove.
For the rat-PGM-β-Gal in vitro readthrough system, the pDB series of reporter plasmids harbor the following elements under SP6 promoter control: an open reading frame (ORF) derived from the 5′ end of the rat PGM gene, which encodes a 25-kDa polypeptide; another small ORF, encoding the 10-kDa alpha complementation region of β-galactosidase, and terminated by tandem, in-frame stop codons (UAA UAG); located between the two ORFs is a DNA fragment derived from PCDH15 cDNA, including the tested stop mutation or the corresponding wild-type codon, and six upstream and downstream flanking codons (except for p.R3X constructs, in which there are only two upstream PCDH15-flanking codons). The fragments were created by annealing the following couples of complementary oligonucleotides:
The fragments were inserted into the BamHI and HindIII restriction sites of the pDB read-through construct. Reporter plasmids harboring each of the four nonsense mutations and the corresponding wt alleles were in vitro transcribed and translated using the TNT SP6 Coupled Reticulocyte lysate System (Promega) in the presence of [^35S]-methionine and increasing concentrations of aminoglycosides as described previously. […] The degree of suppression was calculated as the relative proportion of the 35-kDa product out of total reaction products (35-kDa and 25-kDa polypeptides). The results are averages of at least three independent experiments.

human fibroblast cells = details: cited from earlier work
[5] = tested on: R3X (PCDH15, Usher Syndrome); experiment: Dual luciferase in vitro transcription/translation assay; assay type: biochemical, human
Source text: (§3) DNA fragments derived from the subsequent genes, including the tested stop mutation or the corresponding wild-type codon, and four upstream and downstream flanking codons (except for p.R3X constructs, in which there are only two upstream PCDH15-flanking codons) were cloned into p2Luc plasmid between renilla and firefly luciferase genes as described previously. The formed plasmids, as well as the original p2Luc plasmid containing a TGA C nonsense mutation, were transcribed and translated in vitro and the stop codon suppression efficiency was calculated as described previously.
(§4) For the dual luciferase in vitro transcription/translation assay, DNA fragments derived from PCDH15, CFTR, Dystrophin and IDUA cDNAs, including the tested stop mutation or the corresponding wild-type codon, and four upstream and downstream flanking codons (except for p.R3X constructs, in which there are only two upstream PCDH15-flanking codons) were created by annealing the couples of complementary oligonucleotides presented above.
(§5) Fragments were inserted into the SalI and SacI restriction sites of the p2Luc plasmid between renilla and firefly luciferase genes. The afforded plasmids, as well as the original p2Luc plasmid containing a TGA C nonsense mutation, were transcribed and translated using the TNT Reticulocyte Lysate Quick Coupled Transcription/Translation System (Promega™). Each transcription/translation reaction (10 μl, total volume) contained 8 μl TNT T7 Quick Master Mix, 0.2 μl methionine (1 mM), 0.8 μl DNA template (2 μg/μl), 1 μl of either water (blank) or 1 μl solution of increasing concentrations of the tested aminoglycosides in water. Luciferase activity was determined following 90 minutes incubation at 30° C. using the Dual Luciferase Reporter Assay System (Promega™). The total luminescence produced by each one of the proteins was measured separately using the FLx800 multidetection plate reader (Bio-Tek) and the stop codon suppression efficiency was calculated as described previously. The results are averages of at least three independent experiments.

[6] = tested on: original p2Luc plasmid containing a TGA C nonsense mutation; experiment: as above; assay type: biochemical
Source text: as §3, §4, §5

[7] = ATCC6633, ATCC 6633, read-out: MIC B. Subtilis
[8] = ATCC25922, ATCC 25922, read-out: MIC E. coli

MIC [2, 7]	MIC [3, 8]	Compound	LD50 [1]	Conc. (concentration at which maximal suppression level was observed) [4]	Supp. level (%), maximal in-vitro mutation suppression [4]	Trans. level (%) [4]	further results
		NC[C@H]1O[C@H](O[C@H]2[C@H](O)[C@@H](O[C@H]3O[C@H](CO)[C@@H](O)[C@H](N)[C@H]3O)[C@H](N)C[C@@H]2N)[C@H](N)C[C@@H]1O [tobramycin]	79 mg/kg				stop mutations suppression / read-through activity (stop mutations): do not have stop mutations suppression activity
48 µg/mL (≈ 72.9 µM)	96 µg/mL (≈ 146 µM)	NC1C(OCOC2C(N)[C@H](O[C@H]3C(N)C[C@H](N)C(O)C3O)OC(CO)[C@@H]2O)[C@H](O)C(CO)O[C@@H]1O[C@@H]1C(N)C[C@@H](N)C(O)C1O (stereo partly shown) [Compound 9]		80 µg/mL	<1%	22 ± 2%	
		NC[C@H]1O[C@H](O[C@H]2[C@H](O)[C@@H](O[C@H]3O[C@H](CO)[C@@H](O)[C@H](N)[C@H]3O)[C@H](N)C[C@@H]2N)[C@H](N)[C@@H](O)[C@@H]1O [kanamycin B]	132 mg/kg				
48 µg/mL (≈ 106 µM)	192 µg/mL (≈ 422 µM)	NC[C@H]1O[C@@H](OC2C(N)[C@@H](O[C@@H]3C(N)C[C@@H](N)C(O)C3O)OC(CO)[C@H]2O)C(O)C1O (stereo partly shown) [Compound 7]		80 µg/mL	2.9 ± 2%	98 ± 10%	
		CN[C@@H]1[C@@H](O)[C@@H](O[C@@H]2[C@@H](O)[C@H](O[C@H]3O[C@H]([C@@H](C)O)[C@@H](O)[C@H](O)[C@H]3N)[C@@H](N)C[C@H]2N)OC[C@]1(C)O [Compound G-418, G-418]					LD50 against human fibroblast cells (human fibroblast cells; ref [49]): 0.04 mg/mL
		NC[C@H]1O[C@H](O[C@H]2[C@H](O)[C@@H](O)[C@H](N)C[C@@H]2N)[C@H](N)[C@@H](O)[C@@H]1O [neamine]	125 mg/kg				
64 µg/mL (≈ 141 µM)	256 µg/mL (≈ 562 µM)	NC1C[C@@H](N)[C@@H](O)[C@@H](O[C@@H]2O[C@H](CO)[C@H](O)C2O)[C@@H]1O[C@H]1OC(CO)[C@@H](O)[C@H](O)[C@@H]1N (stereo partly drawn) [Compound 2, (3S,4R,5S,6S)-5-amino-6-((1R,2R,3R,4R)-4,6-diamino-2-((2S,4R,5R)-3,4-dihydroxy-5-(hydroxymethyl)-tetrahydrofuran-2-yloxy)-3-hydroxycyclohexyloxy)-2-(hydroxymethyl)-tetrahydro-2H-pyran-3,4-diol]		80 µg/mL	1.3 ± 0.1%	100 ± 10%	
96 µg/mL (≈ 211 µM)	256 µg/mL (≈ 562 µM)	NC1C[C@@H](N)[C@@H](O[C@@H]2O[C@H](CO)[C@H](O)C2O)[C@@H](O)[C@@H]1O[C@H]1OC(CO)[C@@H](O)[C@H](O)[C@@H]1N (stereo partly drawn) [Compound 4, (3S,4R,5S,6S)-5-amino-6-((1R,2S,3R,4R)-4,6-diamino-3-((2R,4R,5R)-3,4-dihydroxy-5-(hydroxymethyl)-tetrahydrofuran-2-yloxy)-2-hydroxycyclohexyloxy)-2-(hydroxymethyl)-tetrahydro-2H-pyran-3,4-diol]		80 µg/mL	1.5 ± 0.1%	74 ± 7%	
48 µg/mL (≈ 149 µM)	192 µg/mL (≈ 596 µM)	NC1C(N)[C@H](O)C(CO)O[C@@H]1O[C@@H]1C(N)C[C@@H](N)C(O)C1O (stereo partly shown) [Compound 8]		80 µg/mL	2.0 ± 2%	71 ± 7%	fold lower antimicrobial activity as compared to paromomycin ([3]; from Table 18, E. coli and B. subtilis): 6-16 fold
		NC[C@H]1O[C@H](O[C@H]2[C@H](O)[C@@H](O[C@H]3O[C@H](CO)[C@@H](O)[C@H](N)[C@H]3O)[C@H](N)C[C@@H]2N)[C@H](O)[C@@H](O)[C@@H]1O [kanamycin]					LD50 against human fibroblast cells (human fibroblast cells): 2.5 to 5.0 mg/mL
192 µg/mL (≈ 422 µM)	> 512 µg/mL	NC[C@H]1O[C@@H](OC2C(O)[C@H](O[C@H]3OC(CO)[C@@H](O)C(O)C3N)C(N)C[C@H]2N)C(O)C1O (stereo partly shown) [Compound 5]		80 µg/mL	4.4 ± 2%	75 ± 9%	
		NCCC(O)C(=O)NC1CC(N)C(OC2OC(CN)C(O)C(O)C2N)C(O)C1O (stereo not shown) [N1-AHB-neamine]	260 mg/kg				
		NC1CC(N)[C@@H](O[C@H]2OC(CO)[C@@H](O)C(O)C2N)C(O)C1O (stereo partly shown) [Compound 1, Paromamine]		80 µg/mL	6.2%	74 ± 15%	MIC ([2]; ATCC6633, read-out: MIC B. Subtilis): 128 µg/mL (≈ 396 µM); MIC ([3]; ATCC25922, read-out: MIC E. coli): 512 µg/mL (≈ 1580 µM); Maximum in vitro suppression (%) R3X [5]: 0.6 ± 0.1%; Conc. (μM) at which maximum suppression level was achieved ([6]; dual luciferase in vitro system, all constructs of Table 21): 490 µM; Maximum in vitro suppression (%) UGAC ([6]; p2luc): 1.1 ± 0.1%; Supp. level (%), maximal in-vitro mutation suppression ([4]; listed as Paromamine): 6.2 ± 0.2%
		N[C@@H]1[C@@H](O)[C@@H](O[C@@H]2[C@@H](O)[C@H](O[C@H]3O[C@H](CO)[C@@H](O)[C@H](O)[C@H]3N)[C@@H](N)C[C@H]2N)O[C@H](CO)[C@H]1O [kanamycin C]	225 mg/kg				
		NCC[C@H](O)C(=O)N[C@@H]1C[C@H](N)[C@@H](O[C@H]2O[C@H](CN)[C@@H](O)[C@H](O)[C@H]2O)[C@H](O)[C@H]1O[C@H]1O[C@H](CO)[C@@H](O)[C@H](N)[C@H]1O [amikacin]	300 mg/kg				
